# Assay results from patent publication US4163844A, “Nitrogen-containing heterocyclic compounds” (Yamanouchi Pharmaceutical Co., Ltd., priority 1976, dated 1979).
# Experiments:
# [1] = test system: Carrageenin-induced edema; assay: Carrageenin-induced edema (Winter's method); format: in vivo, Male Wister rats; conditions: oral, one hour before carrageenin, edema 3 hours after injection
# Protocol: Male Wister rats (weighting 130-170 g.), one group being 6 rats, fasted overnight were used. According to Winter's method [Proc. Soc. […] After 3 hours, each rat was sacrificed by chloroform and the hind paw was cut and weighed immediately. By using the value obtained by subtracting the weight of the untreated hind paw from the weight of the hind paw having injected thereto the carrageenin as the weight of edema, the inhibitory ratio of the sample administered rat groups to control groups was calculated. The sample was orally administered before one hour of the injection of carrageenin.
# (§1) In addition, the test samples used in the aforesaid tests (a), (b), (c) and (d) were prepared by suspending the test compounds, in the cases of using the compounds of Test Nos. 1-12 and phenylbutazone, in an aqueous 0.5% methyl cellulose solution, dissolving the test compounds, in the cases of using aminopyrine, in distilled water.
# [2] = test system: acetic acid-induced writhings; assay: Whittle's method: acetic acid-induced writhings; format: in vivo, Male ICR-Mice
# Protocol: (§2) Male ICR-Mice (weighting 25-35 g.), one group being 12 mice, fasted overnight were used in this test. The sample was orally administered, and 20 minutes after, 5 ml./Kg. of 0.4% Evance blue was injected intravenously and further 10 minutes after, 10 ml./Kg. of 0.6% acetic acid was injected intraperitoneally. The number of writhings after 20 minutes since the administration of acetic acid was recorded and further 10 minutes after since then, the mice were killed by dislocation of the neck, the dye leaked in the abdominal cavity was washed out with 5 ml. of 0.9% saline to make the total amount 10 ml., and thereafter furs, blood corpuscles, etc., intermingled were removed by centrifugal separation at 3,000 r.p.m. for 5 minutes. Furthermore, for preventing turbidity caused by protein, 0.1 ml. of an aqueous 0.1 normal sodium hydroxide was added and then the absorbance at 590 nm was measured. The inhibition ratio of the sample administered rat groups to control groups was calculated.
# as §1
# [3] = test system: Permeability (dye leakage into abdominal cavity); assay: Whittle's method: permeability (dye leaked in the abdominal cavity); format: in vivo, Male ICR-Mice
# Protocol: as §2, §1
# [4] = test system: Hyperthermia caused by Brewer's yeast; assay: Antipyretic effect (Brewer's yeast hyperthermia); format: in vivo, Male Wister rats; parameters: key: rectal body temperature in °C; conditions: in °C (unit assumed)
# Protocol: Male Wister rats (weighting 130-150 g.), one group being 5 rats, were used. Hyperthermia was caused by subcutaneous injection of 2 ml./rat of 20% Brewer's yeast suspension. 18 hours later, the rats showing a rise in temperature exceeding 1° C. were selected and allocated into groups each consisting of 5 rats. The sample was orally administered and then the body temperature was measured with the passage of time for 6 hours since then. In addition, the body temperature was measured by measuring the temperature in the rectum by means of a thermister thermometer.
# as §1
# [5] = Acute toxicity; format: in vivo, Male Wister rats; conditions: 500 mg/kg oral, observed 7 days; deaths/animals
# Protocol: Male Wister rats (weighting 130-170 g.), one group being 5 rats, fasted overnight were used in this test.
# as §1
# [6] = 1 hour, 50mg/kg P.O., * significantly different from before administration (P<0.05)
# [7] = 2 hours, 50mg/kg P.O., * significantly different from before administration (P<0.05)
# [8] = 4 hours, 50mg/kg P.O., * significantly different from before administration (P<0.05)
# [9] = 6 hours, 50mg/kg P.O., * significantly different from before administration (P<0.05)
# [10] = before administration, group dosed 50mg/kg P.O.
Molecule,Inhibition (carrageenin-induced edema) ([1]; 25 mg/kg),"Inhibition, Writhings ([2]; 50mg/kg P.O.)","Inhibition, Permeability ([3]; 50mg/kg P.O.)",Inhibition (carrageenin-induced edema) ([1]; 50 mg/kg),also measured
"2-acetoxy-5-oxo-2,3-dihydro-5H-thiazolo[3,2-b]isoquinoline [Example 9]",53.4%,82.9%,,,
"3-methyl-5-oxo-2,3-dihydro-5H-thiazolo[3,2-b]isoquinoline [Example 1]",,57.8%,21.3%,,"Inhibition, Permeability ([3]; 25mg/kg P.O.): 26.2%; Inhibition, Writhings ([2]; 25mg/kg P.O.): 24.8%"
"5-oxo-2,3-dihydro-5H-thiazolo[3,2-b]isoquinoline-1,1-dioxide [Example 8]",57.5%,,23.5%,,
"5-oxo-5H-thiazolo[3,2-b]isoquinoline [Example 10]",58.0%,91.6%,32.4%,,
"5-oxo-5H-thiazolo[3,2-b]isoquinoline-1,1-dioxide [Example 5]",55.3%,,36.0%,67.2%,"Inhibition, Permeability ([3]; 25mg/kg P.O.): 22.6%"
"6-oxo-2,3-dihydro-2H,6H-1,3-oxazino[3,2-b]isoquinoline [Example 2]",41.7%,14.4%,20.1%,71.2%,"Inhibition, Permeability ([3]; 25mg/kg P.O.): 4.7%; Inhibition, Writhings ([2]; 25mg/kg P.O.): 22.6%"
"6-oxo-3,4-dihydro-2H,6H-1,3-thiazino[3,2-b]isoquinoline [Example 3]",47.0%,67.5%,37.0%,74.0%,
"6-oxo-3,4-dihydro-2H,6H-1,3-thiazino[3,2-b]isoquinoline-1,1-dioxide [Example 7]",57.0%,69.5%,38.6%,,
"6-oxo-3,4-dihydro-2H,6H-1,3-thiazino[3,2-b]isoquinoline-1-oxide [Example 6]",57.1%,28.8%,37.1%,,
"Cc1c(N(C)C)c(=O)n(-c2ccccc2)n1C [Aminopyrine, reference compound]",,58.1%,41.7%,,"Inhibition, Permeability ([3]; 25mg/kg P.O.): 28.5%; Rectal temperature (mean±SE) [4, 6]: 37.92±0.09; Rectal temperature (mean±SE) [4, 7]: 37.49±0.10; Rectal temperature (mean±SE) [4, 8]: 37.39±0.07; Rectal temperature (mean±SE) [4, 9]: 37.76±0.19; Rectal temperature (mean±SE) [4, 10]: 39.24±0.14; Inhibition, Writhings ([2]; 25mg/kg P.O.): 29.6%"
"O=c1c2ccccc2cc2n1CC[S+]2[O-] (stereo not drawn) [Example 4, 5-oxo-2,3-dihydro-5H-thiazolo[3,2-b]isoquinoline-1-oxide]",41.2%,39.7%,41.1%,65.1%,"Inhibition, Permeability ([3]; 25mg/kg P.O.): 22.1%; Inhibition, Writhings ([2]; 25mg/kg P.O.): 29.1%"
"CCCCC1C(=O)N(c2ccccc2)N(c2ccccc2)C1=O [Phenylbutazone, reference compound]",29.4%,,,44.5%,
O=c1c2ccccc2cc2n1CCCS2 [Test No. 1],54.8%,,,69.8%,"Rectal temperature (mean±SE) [4, 6]: 38.72±0.13; Rectal temperature (mean±SE) [4, 7]: 38.20±0.15; Rectal temperature (mean±SE) [4, 8]: 37.39±0.23; Rectal temperature (mean±SE) [4, 9]: 37.44±0.32; Rectal temperature (mean±SE) [4, 10]: 39.26±0.19"
O=c1c2ccccc2cc2n1CCCS2(=O)=O [Test No. 2],,,,,"Rectal temperature (mean±SE) [4, 6]: 39.04±0.23; Rectal temperature (mean±SE) [4, 7]: 38.41±0.21; Rectal temperature (mean±SE) [4, 8]: 37.32±0.31; Rectal temperature (mean±SE) [4, 9]: 37.55±0.33; Rectal temperature (mean±SE) [4, 10]: 38.94±0.14"
CC1CSc2cc3ccccc3c(=O)n21 (stereo not drawn) [Test No. 3],,,,,Number of death [5]: 3/5
O=c1c2ccccc2cc2n1CCC[S+]2[O-] (stereo not drawn) [Test No. 5],,,,,Number of death [5]: 3/5
O=Cc1c2n(c(=O)c3ccccc13)CCCS2 [Test No. 11],45.9%,,,,
